Results from ChEMBL document CHEMBL1136564, “Sordaricin antifungal agents” (2003).
Converted amounts (≈) assume the structure as drawn.

Legend:
[1] = system: Nakaseomyces glabratus; test: Minimum inhibitory concentration required to inhibit 90 to 100% visible growth of Candida glabrata; type: functional
[2] = system: Candida albicans; test: Minimum inhibitory concentration to inhibit 90 to 100% visible growth of Candida albicans; type: functional

Row | Structure (SMILES) | MIC [1] | MIC [2]
1 | CC(C)C1=CC2CC3(C=O)C4CC[C@@H](C)C4CC2(CCOC(=O)Cc2csc4ccccc24)C13C(=O)O (stereo partly drawn) | > 128 µg/mL | 8 µg/mL (≈ 15.4 µM)
2 | CSc1ccc(C(=O)OCCC23CC4C(CC[C@H]4C)C4(C=O)CC2C=C(C(C)C)C43C(=O)O)cc1 (stereo partly drawn) | > 128 µg/mL | 2 µg/mL (≈ 4.03 µM)
3 | CC(C)C1=CC2CC3(C=O)C4CC[C@@H](C)C4CC2(CCOC(=O)[C@H](NC(=O)OC(C)(C)C)c2ccccc2)C13C(=O)O (stereo partly drawn) | > 128 µg/mL | 4 µg/mL (≈ 6.9 µM)
4 | CC(C)C1=CC2CC3(C=O)C4CC[C@@H](C)C4CC2(CCOC(=O)Cc2ccc(Br)o2)C13C(=O)O (stereo partly drawn) | 64 µg/mL (≈ 120 µM) | 2 µg/mL (≈ 3.75 µM)
5 | CC(C)=CC(=O)OCCC12CC3C(CC[C@H]3C)C3(C=O)CC1C=C(C(C)C)C32C(=O)O (stereo partly drawn) | 16 µg/mL (≈ 37.3 µM) | 0.5 µg/mL (≈ 1.17 µM)
6 | CC(C)C1=CC2CC3(C=O)C4CC[C@@H](C)C4CC2(CCOC(=O)[C@@H]2CCCN2C(=O)OC(C)(C)C)C13C(=O)O (stereo partly drawn) | 128 µg/mL (≈ 235 µM) | 16 µg/mL (≈ 29.4 µM)
7 | CC(C)C1=CC2CC3(C=O)C4CC[C@@H](C)C4CC2(CCOC(=O)C2CCCCC2)C13C(=O)O (stereo partly drawn) | 8 µg/mL (≈ 17.5 µM) | < 0.06 µg/mL
8 | CC(C)C1=CC2CC3(C=O)C4CC[C@@H](C)C4CC2(CCOC(=O)[C@H](C)NC(=O)OC(C)(C)C)C13C(=O)O (stereo partly drawn) | > 128 µg/mL | 32 µg/mL (≈ 61.8 µM)
9 | CC(C)C1=CC2CC3(C=O)C4CC[C@@H](C)C4CC2(CCOC(=O)c2cccnc2)C13C(=O)O (stereo partly drawn) | > 128 µg/mL | 16 µg/mL (≈ 35.4 µM)
10 | CC(C)C1=CC2CC3(C=O)C4CC[C@@H](C)C4CC2(CCOC(=O)[C@@H]2CCC(=O)N2)C13C(=O)O (stereo partly drawn) | > 128 µg/mL | > 128 µg/mL
11 | C=CCCCCC(=O)OCCC12CC3C(CC[C@H]3C)C3(C=O)CC1C=C(C(C)C)C32C(=O)O (stereo partly drawn) | 8 µg/mL (≈ 17.5 µM) | < 0.06 µg/mL
12 | CC(C)C1=CC2CC3(C=O)C4CC[C@@H](C)C4CC2(CCOC(=O)CCC(=O)O)C13C(=O)O (stereo partly drawn) | > 128 µg/mL | < 128 µg/mL
13 | CC(C)C1=CC2CC3(C=O)C4CC[C@@H](C)C4CC2(CCOC(=O)CCNC(=O)OC(C)(C)C)C13C(=O)O (stereo partly drawn) | > 128 µg/mL | 64 µg/mL (≈ 124 µM)
14 | CC(C)C1=CC2CC3(C=O)C4CC[C@@H](C)C4CC2(CCOC(=O)c2cccc(C#N)c2)C13C(=O)O (stereo partly drawn) | > 128 µg/mL | 1 µg/mL (≈ 2.1 µM)
15 | CC(C)C1=CC2CC3(C=O)C4CC[C@@H](C)C4CC2(CCOC(=O)c2ccc4[nH]cnc4c2)C13C(=O)O (stereo partly drawn) | > 128 µg/mL | > 128 µg/mL
16 | CCCOc1ccc(C(=O)OCCC23CC4C(CC[C@H]4C)C4(C=O)CC2C=C(C(C)C)C43C(=O)O)cc1 (stereo partly drawn) | > 128 µg/mL | 128 µg/mL (≈ 252 µM)
17 | CC(C)C1=CC2CC3(C=O)C4CC[C@@H](C)C4CC2(CCOC(=O)C2CCN(C(=O)OC(C)(C)C)CC2)C13C(=O)O (stereo partly drawn) | > 128 µg/mL | 8 µg/mL (≈ 14.3 µM)
18 | CC(C)C1=CC2CC3(C=O)C4CC[C@@H](C)C4CC2(CCOC(=O)Cc2c[nH]c4ccccc24)C13C(=O)O (stereo partly drawn) | > 128 µg/mL | 
19 | CC(C)C1=CC2CC3(C=O)C4CC[C@@H](C)C4CC2(CCOC(=O)CCN2CCCCC2)C13C(=O)O (stereo partly drawn) | > 128 µg/mL | > 128 µg/mL
20 | CC(C)C1=CC2CC3(C=O)C4CC[C@@H](C)C4CC2(CCOC(=O)Cc2ccc(N(C)C)cc2)C13C(=O)O (stereo partly drawn) | > 128 µg/mL | 1 µg/mL (≈ 1.97 µM)
21 | CC(C)C1=CC2CC3(C=O)C4CC[C@@H](C)C4CC2(CCOC(=O)c2ccco2)C13C(=O)O (stereo partly drawn) | > 128 µg/mL | 8 µg/mL (≈ 18.2 µM)
22 | CC(C)C1=CC2CC3(C=O)C4CC[C@@H](C)C4CC2(CCOC(=O)C2CCCC2)C13C(=O)O (stereo partly drawn) | 4 µg/mL (≈ 9.04 µM) | 0.125 µg/mL (≈ 0.282 µM)
23 | CC(C)C1=CC2CC3(C=O)C4CC[C@@H](C)C4CC2(CCOC(=O)c2cccs2)C13C(=O)O (stereo partly drawn) | > 128 µg/mL | > 128 µg/mL
24 | CC(C)C1=CC2CC3(C=O)C4CC[C@@H](C)C4CC2(CCOC(=O)c2ccc(F)cc2)C13C(=O)O (stereo partly drawn) | > 128 µg/mL | 4 µg/mL (≈ 8.54 µM)

Row | Structure (SMILES) | MIC [1] | MIC [2]
25 | CC(C)C1=CC2CC3(C=O)C4CC[C@@H](C)C4CC2(CCOC(=O)c2ccc(S(N)(=O)=O)cc2)C13C(=O)O (stereo partly drawn) | > 128 µg/mL | > 128 µg/mL
26 | CSc1ccc(CC(=O)OCCC23CC4C(CC[C@H]4C)C4(C=O)CC2C=C(C(C)C)C43C(=O)O)cc1 (stereo partly drawn) | > 128 µg/mL | 0.5 µg/mL (≈ 0.979 µM)
27 | CC(C)C1=CC2CC3(C=O)[C@@H]4CC[C@@H](C)[C@H]4CC2(C(O)C#CC(C)(C)C)[C@]13C(=O)O (stereo partly drawn) | 128 µg/mL (≈ 310 µM) | 128 µg/mL (≈ 310 µM)
28 | CC(C)C1=CC2CC3(C=O)[C@@H]4CC[C@@H](C)[C@H]4CC2(C(O)C#Cc2ccccc2)[C@]13C(=O)O (stereo partly drawn) | 8 µg/mL (≈ 18.5 µM) | 0.25 µg/mL (≈ 0.578 µM)
29 | CC(C)C1=CC2CC3(C=O)C4CC[C@@H](C)C4CC2(CCOC(=O)CCc2c[nH]c4ccccc24)C13C(=O)O (stereo partly drawn) | > 128 µg/mL | > 128 µg/mL
30 | CC(C)C1=CC2CC3(C=O)C4CC[C@@H](C)C4CC2(CCOC(=O)c2ccc(Br)cc2)C13C(=O)O (stereo partly drawn) | > 128 µg/mL | > 128 µg/mL
31 | CC(C)C1=CC2CC3(C=O)C4CC[C@@H](C)C4CC2(CCOC(=O)c2ccc4c(c2)OCO4)C13C(=O)O (stereo partly drawn) | > 128 µg/mL | 2 µg/mL (≈ 4.04 µM)
32 | CC(C)C1=CC2CC3(C=O)C4CC[C@@H](C)C4CC2(CCOC(=O)CNC(=O)OC(C)(C)C)C13C(=O)O (stereo partly drawn) | > 128 µg/mL | 128 µg/mL (≈ 254 µM)
33 | CC(C)C1=CC2CC3(C=O)C4CC[C@@H](C)C4CC2(CCOC(=O)c2cc(C(=O)O)[nH]n2)C13C(=O)O (stereo partly drawn) | > 128 µg/mL | > 128 µg/mL
34 | CC(=O)CCC(=O)OCCC12CC3C(CC[C@H]3C)C3(C=O)CC1C=C(C(C)C)C32C(=O)O (stereo partly drawn) | > 128 µg/mL | 8 µg/mL (≈ 18 µM)
35 | C=Cc1ccc(C(=O)OCCC23CC4C(CC[C@H]4C)C4(C=O)CC2C=C(C(C)C)C43C(=O)O)cc1 (stereo partly drawn) | > 128 µg/mL | 4 µg/mL (≈ 8.39 µM)
36 | CC(C)C1=CC2CC3(C=O)C4CC[C@@H](C)C4CC2(CCOC(=O)c2cncc(Br)c2)C13C(=O)O (stereo partly drawn) | > 128 µg/mL | 4 µg/mL (≈ 7.54 µM)
37 | CC(C)C1=CC2CC3(C=O)C4CC[C@@H](C)C4CC2(CCOC(=O)c2cc4ccccc4o2)C13C(=O)O (stereo partly drawn) | > 128 µg/mL | > 128 µg/mL
38 | CC(C)C1=CC2CC3(C=O)[C@@H]4CC[C@@H](C)[C@H]4CC2(C(=O)CCc2ccccc2)[C@]13C(=O)O | 8 µg/mL (≈ 18.4 µM) | 16 µg/mL (≈ 36.8 µM)
39 | CC(C)C1=CC2CC3(C=O)C4CC[C@@H](C)C4CC2(CCOC(=O)c2ccccc2)C13C(=O)O (stereo partly drawn) | > 128 µg/mL | 32 µg/mL (≈ 71 µM)
40 | CC(C)C1=CC2CC3(C=O)C4CC[C@@H](C)C4CC2(CCOC(=O)c2nccc4ccccc24)C13C(=O)O (stereo partly drawn) | > 128 µg/mL | > 128 µg/mL
41 | CCCCCCCCCCCCCCCCC(=O)C12C[C@@H]3[C@H](C)CC[C@H]3C3(C=O)CC1C=C(C(C)C)[C@@]23C(=O)O | > 128 µg/mL | > 128 µg/mL
42 | CC(C)C1=CC2CC3(C=O)C4CC[C@@H](C)C4CC2(CCOC(=O)c2cccn2C)C13C(=O)O (stereo partly drawn) | > 128 µg/mL | > 128 µg/mL
43 | CC(C)C1=CC2CC3(C=O)[C@@H]4CC[C@@H](C)[C@H]4CC2(C(=O)C#CC(C)(C)C)[C@]13C(=O)O | > 128 µg/mL | > 128 µg/mL
44 | CC(C)C1=CC2CC3(C=O)C4CC[C@@H](C)C4CC2(CCO)C13C(=O)O (stereo partly drawn) | > 128 µg/mL | > 128 µg/mL
45 | CC(C)C1=CC2CC3(C=O)C4CC[C@@H](C)C4CC2(CCOC(=O)CC(C)(C)C)C13C(=O)O (stereo partly drawn) | 4 µg/mL (≈ 9 µM) | < 0.06 µg/mL
46 | CC(C)C1=CC2CC3(C=O)C4CC[C@@H](C)C4CC2(CCOC(=O)c2ccc(C#N)cc2)C13C(=O)O (stereo partly drawn) | > 128 µg/mL | 8 µg/mL (≈ 16.8 µM)
47 | CC(C)C1=CC2CC3(C=O)C4CC[C@@H](C)C4CC2(CCOC(=O)Cc2ccco2)C13C(=O)O (stereo partly drawn) | 64 µg/mL (≈ 141 µM) | 2 µg/mL (≈ 4.4 µM)
